Test results from PMC11375786, “Induction of Paraptotic Cell Death in Cancer Cells by Triptycene–Peptide Hybrids and the Revised Mechanism of Paraptosis II” (Biochemistry, 2024).
Where two headings read alike, the source gives them in different places. Numbered stars: 1 amine (or outer) side, 2 acyl side, 3 side chain; on linkers, the order of the positions; unused ones are H or OH. Bridge positions count the residues as written; N and C are the ends. Square brackets hold non-standard residues; d marks the D form. Peptide text beside a SMILES is read from it. I, II: the chains in the order shown. * marks the point of attachment. X1 = O=C(COc1cccc2c1C1c3c(OCC(=O)NCCCCCCCCN[*:2])cccc3C2c2cccc(OCC(=O)NCCCCCCCCN[*:3])c21)NCCCCCCCCN[*:1]; Cha = N[C@@H](CC1CCCCC1)C(=O)O; Cbz = O=C(OCc1ccccc1)*; CH2F = FC*

How the values were obtained:
A549 cells [1] = assay: cells
Experimental: (§1) HeLa S3 cells (human cervical carcinoma) were cultured in Minimum essential medium (MEM) containing 10% FBS, penicillin, and streptomycin. A549 cells (human lung carcinoma) and IMR90 cells (human fetal lung fibroblast) were cultured in Dulbecco’s modified Eagle’s medium (DMEM) with 10% FBS, penicillin, and streptomycin. All cells were cultured at 37 °C under a humidified atmosphere containing 5% CO2.
(§2) Jurkat, HeLa-S3, A549 cells (2.0 × 10^5 cells/mL) and IMR90 cells (1.0 × 10^5 cells/mL) were incubated in the presence of 3–7 for 1 h, and etoposide, cisplatin and celastrol for 24 h (50 μL) in cell culture medium under CO2 at 37 °C in 96-well plates (BD Falcon). MTT reagent (5 mg/mL) in PBS (10 μL) was then added to the cells. After incubation at 37 °C for 4 h, a formazan lysis solution (10% sodium dodecyl sulfate (SDS) in 0.01 N HCl) (100 μL) was added and the resultant solution was incubated overnight under the same conditions, which was followed by measurement of the absorbance at 570 nm using a microplate reader (ARVO, PerkinElmer).

HeLa-S3 cells [2] = assay: cells
Experimental: as §1, §2

IMR90 cells = assay: cells
Experimental: as §1, §2

Jurkat cells [3] = assay: cells
Experimental: as §1, §2

Jurkat cells [4] = assay: MTT assay of Jurkat cells treated with 4 or celastrol in the presence of inhibitors; type: cell-based; conditions: DIDS 75 or 100 μM, RuRed 75 μM; for Inhibition of 4-induced cell death in Jurkat cells: 4 2.5 μM 1 h, Z-VAD-fmk 15 μM, necrostatin-1 30 μM, 3-MA 10 μM, CCCP 40 μM, 2-APB 50 or 100 μM; for Inhibition of celastrol-induced cell death in Jurkat cells: celastrol 5 μM 24 h, 2-APB 50 μM
Experimental: (a) Jurkat cells: Jurkat cells (2.0 × 10^5 cells/mL) in RPMI 1640 medium with 10% FBS were pretreated with the inhibitors (Z-VAD-fmk (final concentration = 15 μM), necrostatin-1 (final concentration = 30 μM), 3-MA (final concentration = 10 μM), and DIDS (75 or 100 μM)) for 3 h or pretreated with other inhibitors (CCCP (40 μM), FCCP (40 μM), 2-APB (50 or 100 μM) and RuRed (75 μM)) for 1 h under 5% CO2 at 37 °C. After incubation, 4 (final concentration = 2.5 μM) was added to the cell suspension, which was then incubated for 1 h at 37 °C. To test the effect of celastrol, the cells were pretreated with the aforementioned inhibitors and then incubated with celastrol (5 μM) for 24 h. MTT reagent (5 mg/mL) in PBS (10 μL) was added to the cells. After incubation at 37 °C for 4 h, a formazan lysis solution (10% sodium dodecyl sulfate (SDS) in 0.01 N HCl) (100 μL) was added, and the resultant solution was incubated overnight under the same conditions, followed by measurement of the absorbance at 570 nm using a microplate reader (ARVO, PerkinElmer).

HeLa-S3 cells [5] = assay: MTT assay of HeLa-S3 cells treated with 4 or celastrol in the presence of inhibitors; type: cell-based, human; conditions: 4 5 μM 1 h; Z-VAD-fmk 100 μM, necrostatin-1 100 μM, 3-MA 5 mM, CCCP 160 μM, DIDS 75 or 100 μM
Experimental: (b) HeLa-S3 cells: HeLa-S3 cells (2.0 × 10^5 cells/mL) in MEM medium with 10% FBS were pretreated with the inhibitors (3-MA (5 mM), and DIDS (75 or 100 μM)) for 3 h or pretreated with other inhibitors (Z-VAD-fmk (100 μM), necrostatin-1 (100 μM), CCCP (160 μM), and FCCP (80 μM)) for 1 h under 5% CO2 at 37 °C. After the incubation, 4 (final concentration = 5 μM) was added to the cell suspension, which was then incubated for 1 h at 37 °C. Subsequent procedures were the same as those used for the Jurkat cells.

A549 cells [6] = assay: MTT assay of A549 cells treated with 4 or celastrol in the presence of inhibitors; type: cell-based, human; conditions: 4 10 μM 1 h; Z-VAD-fmk 100 μM, necrostatin-1 100 μM, 3-MA 1 mM, CCCP 250 μM, DIDS 250 μM
Experimental: (c) A549 cells: A549 cells (2.0 × 10^5 cells/mL) in DMEM medium with 10% FBS were pretreated with the inhibitors (3-MA (1 mM), and DIDS (250 μM)) for 3 h or pretreated with other inhibitors (Z-VAD-fmk (100 μM), necrostatin-1 (100 μM), CCCP (250 μM), and FCCP (10 μM)) for 1 h under 5% CO2 at 37 °C. After incubation, 4 (final concentration = 10 μM) was added to the cell suspension, which was then incubated for 1 h at 37 °C. Subsequent procedures were the same as those used for the Jurkat cells.

[7] = test system: labile Fe^2+ in mitochondria of Jurkat cells; assay: Mito-FerroGreen fluorescence microscopy in Jurkat cells; type: cell-based; conditions: 4 2.5 μM 1 h; celastrol 5 μM, etoposide 5 μM, cisplatin 100 μM 24 h
Experimental: (§3) Jurkat cells (2.0 × 10^5 cells) were treated with 4 (2.5 μM), etoposide (5 μM), cisplatin (100 μM) and celastrol (5 μM) and stained with Mito-FerroGreen (a probe for labile Fe^2+ in mitochondria) (5 μM) and zinquin (a probe for intracellular Zn^2+) (25 μM). The cell images were observed via fluorescence microscopy.

[8] = test system: intracellular Zn^2+ in Jurkat cells; assay: Zinquin fluorescence microscopy in Jurkat cells; type: cell-based; conditions: 4 2.5 μM 1 h; celastrol 5 μM, etoposide 5 μM, cisplatin 100 μM 24 h
Experimental: as §3

| Structure (SMILES) | EC50 (HeLa-S3 cells [2]; 1 h) | EC50 (IMR90 cells; 1 h) | EC50 (Jurkat cells [3]; 1 h) | Inhibition of 4-induced cell death in Jurkat cells (Jurkat cells [4]) | Inhibition of 4-induced cell death in HeLa-S3 cells (HeLa-S3 cells [5]) | Inhibition of 4-induced cell death in A549 cells (A549 cells [6]) | also measured |
| --- | --- | --- | --- | --- | --- | --- | --- |
| NCCCC[C@H](NC(=O)[C@H](CCCCN)NC(=O)[C@@H](N)CCCCN)C(=O)NCC(=O)NCC(=O)NCCCCCCCCNC(=O)COc1cccc2c1C1c3c(OCC(=O)NCCCCCCCCNC(=O)CNC(=O)CNC(=O)[C@H](CCCCN)NC(=O)[C@H](CCCCN)NC(=O)[C@@H](N)CCCCN)cccc3C2c2cccc(OCC(=O)NCCCCCCCCNC(=O)CNC(=O)CNC(=O)[C@H](CCCCN)NC(=O)[C@H](CCCCN)NC(=O)[C@@H](N)CCCCN)c21 [compound 3] | 5.3 ± 0.5 µM | > 25 µM | 2.2 ± 0.5 µM | – | – | – | EC50 (A549 cells [1]; 1 h): 8.6 ± 1.8 µM |
| CN1C(=O)C(Cc2c[nH]c3ccccc23)NC1=S (centres unmarked) [necrostatin-1] | – | – | – | negligibly inhibited | negligibly inhibited | negligibly inhibited | – |
| COc1cc([C@@H]2c3cc4c(cc3[C@@H](O[C@@H]3O[C@@H]5CO[C@@H](C)O[C@H]5[C@H](O)[C@H]3O)[C@H]3COC(=O)[C@H]23)OCO4)cc(OC)c1O [etoposide] | – | – | – | – | – | – | EC50 (A549 cells [1]; Homo sapiens, A549, read-out: EC50 against A549 cells): > 100 µM; EC50 (HeLa-S3 cells [2]; Homo sapiens, HeLa S3, 24 h, read-out: EC50 against HeLa-S3 cells): > 100 µM; EC50 (IMR90 cells; Homo sapiens, IMR-90, 24 h, read-out: EC50 against IMR90 cells): > 25 µM; EC50 (Jurkat cells [3]; Homo sapiens, Jurkat, 24 h, read-out: EC50 against Jurkat cells): 3.1 ± 0.1 µM; Emission from Mito-FerroGreen (free Fe2+ in mitochondria) in Jurkat cells [7]: increases in both free-Fe^2+ and free-Zn^2+; Emission from zinquin (intracellular free Zn2+) in Jurkat cells [8]: increases in both free-Fe^2+ and free-Zn^2+ |
| N.N.N.N.N.N.N.N.N.N.N.N.N.N.[Cl-].[Cl-].[Cl-].[Cl-].[Cl-].[Cl-].[O-2].[O-2].[Ru+3].[Ru+3].[Ru+4] [RuRed, Ruthenium Red] | – | – | – | rather weak | – | – | Inhibition of celastrol-induced cell death in Jurkat cells (Jurkat cells [4]): did not significantly stop cell death |
| NCCOB(c1ccccc1)c1ccccc1 [2-APB] | – | – | – | rather weak | – | – | Inhibition of celastrol-induced cell death in Jurkat cells (Jurkat cells [4]): did not significantly stop cell death |
| NCCCC[C@H](NC(=O)[C@H](CC1CCCCC1)NC(=O)[C@H](CCCCN)NC(=O)[C@H](CC1CCCCC1)NC(=O)[C@@H](N)CCCCN)C(=O)NCC(=O)NCCCCCCCCNC(=O)COc1cccc2c1C1c3c(OCC(=O)NCCCCCCCCNC(=O)CNC(=O)[C@H](CCCCN)NC(=O)[C@H](CC4CCCCC4)NC(=O)[C@H](CCCCN)NC(=O)[C@H](CC4CCCCC4)NC(=O)[C@@H](N)CCCCN)cccc3C2c2cccc(OCC(=O)NCCCCCCCCNC(=O)CNC(=O)[C@H](CCCCN)NC(=O)[C@H](CC3CCCCC3)NC(=O)[C@H](CCCCN)NC(=O)[C@H](CC3CCCCC3)NC(=O)[C@@H](N)CCCCN)c21 [compound 6] (I: H-K[Cha]K[Cha]KG / II: H-K[Cha]K[Cha]KG / III: H-K[Cha]K[Cha]KG; linker I:C-II:C-III:C via X1) | 3.3 ± 0.2 µM | > 25 µM | 1.2 ± 0.1 µM | – | – | – | – |
| Cn1cnc(N)c2ncnc1-2 [3-MA, 3-methyladenine] | – | – | – | negligibly inhibited | negligibly inhibited | negligibly inhibited | – |
| NCCCC[C@H](NC(=O)[C@H](CCCCN)NC(=O)[C@@H](N)CCCCN)C(=O)N[C@@H](CC1CCCCC1)C(=O)NCC(=O)O [KKKChaG, H2N-KKKChaG] (H-KKK[Cha]G-OH; C-terminus assumed) | > 25 µM | > 25 µM | > 25 µM | – | – | – | EC50 (A549 cells [1]; 1 h): > 25 µM |
| O=S(=O)(O)c1cc(N=C=S)ccc1C=Cc1ccc(N=C=S)cc1S(=O)(=O)O [DIDS, 4,4′-diisothiocyano-2,2′-stilbenedisulfonic acid] | – | – | – | considerably inhibits | considerably inhibits | considerably inhibits | Inhibition of celastrol-induced cell death in Jurkat cells (Jurkat cells [4]): did not significantly stop cell death |
| N=C(N)NCCC[C@H](NC(=O)[C@H](CC1CCCCC1)NC(=O)[C@H](CCCNC(=N)N)NC(=O)[C@H](CC1CCCCC1)NC(=O)[C@@H](N)CCCNC(=N)N)C(=O)NCC(=O)NCCCCCCCCNC(=O)COc1cccc2c1C1c3c(OCC(=O)NCCCCCCCCNC(=O)CNC(=O)[C@H](CCCNC(=N)N)NC(=O)[C@H](CC4CCCCC4)NC(=O)[C@H](CCCNC(=N)N)NC(=O)[C@H](CC4CCCCC4)NC(=O)[C@@H](N)CCCNC(=N)N)cccc3C2c2cccc(OCC(=O)NCCCCCCCCNC(=O)CNC(=O)[C@H](CCCNC(=N)N)NC(=O)[C@H](CC3CCCCC3)NC(=O)[C@H](CCCNC(=N)N)NC(=O)[C@H](CC3CCCCC3)NC(=O)[C@@H](N)CCCNC(=N)N)c21 [compound 7] (I: H-R[Cha]R[Cha]RG / II: H-R[Cha]R[Cha]RG / III: H-R[Cha]R[Cha]RG; linker I:C-II:C-III:C via X1) | 2.7 ± 0.5 µM | > 12.5 µM | 2.1 ± 0.1 µM | – | – | – | EC50 (A549 cells [1]; 1 h): 1.5 ± 0.1 µM |
| COC(=O)CC(NC(=O)C(C)NC(=O)C(NC(=O)OCc1ccccc1)C(C)C)C(=O)CF (stereo not drawn) [Z-VAD-fmk, benzyloxycarbonyl-VAD(OMe)-fluoromethylketone] (Cbz-Val-Ala-Asp(OMe)-CH2F; configuration not given here) | – | – | – | negligibly inhibited | negligibly inhibited | negligibly inhibited | – |
